Assay: Ocular tension (IOP) lowering in rabbits after eye drop, Tonopen XL tonometer
Type: in vivo, Rabbits (New Zealand albino)
Conditions: eye drop of 0.5% preparation, 50 μL; for AUC0-8 hr Δ IOP % mean ± S.D.: IOP before, 2.5 h and 8 h after treatment, trapezoidal rule, change relative to pre-treatment; for ocular tension compared with the control group: p < 0.05 vs medium control
Method: Rabbits (New Zealand albino, body weight: 2.0 to 2.5 kg) having ocular tension of 15 mmHg before treated were used in this experiment. Experimental group of the rabbits were treated with an eye drop of the preparation of a 0.5% concentration of the compounds A and B with a dosage of 50 μL at a time. Control group of the rabbits were treated with an eye drop of a medium (ophthalmic solutions containing 0.40% of NaH2PO4, 0.47% of NaHPO4, 0.47% of NaCl, and 1.0% of polysorbate 80 with pH 6.8) with the same dosage as in the experimental group at a time. The ocular tension of the experimental group and the control group was measured with a Tonopen™ XL tonometer before treatment, 2.5 hours, and 8 hours after treatment.
Next, a ratio of ocular tension change relative to ocular tension measured before treatment (Δ IOP %) was calculated, and an area (AUC0-8hr Δ IOP %) defined by the area under the curve obtained by plotting out Δ IOP % with respect to the horizontal axis representing lapse of time was calculated in accordance with a method of trapezoidal rule.

COc1cc(C(=O)N(C)c2ccc(C)cc2OCCCCCC(=O)N2CCN(C)CC2)ccc1NC(=O)c1ccccc1OCCCN [Compound A, 4-[2-(3-aminopropyl-1-yl)oxy]benzoylamino-3-methoxy-N-methyl-N-{4-methyl-2-[5-(4-methylpiperazin-1-yl)carbonylpent-1-yloxy]phenyl}benzamide]
AUC0-8 hr Δ IOP % mean ± S.D.: −147.0 ± 89.0 % | ocular tension compared with the control group: significantly lowered

Cc1ccc(-c2ccccc2C(=O)Nc2ccc(C(=O)N3CCC(=O)N(CC(=O)N4CCN(C)CC4)c4ccccc43)cc2)cc1 [Compound B, 5-{4-[2-(4-methylphenyl)benzoylamino]benzoyl}-1-[(4-methyl-1-piperazinyl)carbonylmethyl]-1,3,4,5-tetrahydro-1,5-benzodi azepin-2(2H)-one]
AUC0-8 hr Δ IOP % mean ± S.D.: −145.8 ± 87.7 % | ocular tension compared with the control group: significantly lowered

— patent US20040006142A1, “Ocular tension depressor” (priority 2002, published 2004)
